Assay results: ChEMBL document CHEMBL1201862, “PubChem BioAssay data set” (2004)
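Values below derive from 48-hour exposures of cells grown in 96-well plates, with endpoints linearly interpolated between the two concentrations bracketing the appropriate inhibition level. At the GI50, growth is halved.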 Calls of active or inactive are those of the source. No stated cut-off is given here; in the data, active = GI50 up to about 1.1 µM and inactive = higher. Where a SMILES comes first, the peptide text is derived from it. The star is where a group is joined. CH2Cl = ClC*

Experiments:
Test in all cases: growth of human tumour cells (NCI), 48 h
786-0 = system: 786-0
SR = system: SR
SNB-19 = system: SNB-19
COLO 205 = system: COLO 205
EKVX = system: EKVX
TK-10 = system: TK-10
U-251 = system: U-251
OVCAR-3 = system: OVCAR-3
HOP-92 = system: HOP-92
SK-MEL-2 = system: SK-MEL-2
MCF7 = system: MCF7
OVCAR-5 = system: OVCAR-5
MDA-MB-435 = system: MDA-MB-435
SW-620 = system: SW-620
A498 = system: A498
SK-MEL-5 = system: SK-MEL-5
OVCAR-4 = system: OVCAR-4
Hs-578T = system: Hs-578T
MDA-N = system: MDA-N
SNB-75 = system: SNB-75

| SMILES | GI50 (786-0) | GI50 (SR) | GI50 (SNB-19) | GI50 (COLO 205) | GI50 (EKVX) | GI50 (TK-10) | GI50 (U-251) | GI50 (OVCAR-3) | GI50 (HOP-92) | GI50 (SK-MEL-2) | GI50 (MCF7) | GI50 (OVCAR-5) | GI50 (MDA-MB-435) | GI50 (SW-620) | GI50 (A498) | GI50 (SK-MEL-5) | GI50 (OVCAR-4) | GI50 (Hs-578T) | GI50 (MDA-N) | GI50 (SNB-75) |
| --- | --- | --- | --- | --- | --- | --- | --- | --- | --- | --- | --- | --- | --- | --- | --- | --- | --- | --- | --- | --- |
| O=C(N/N=C/c1c(-c2ccccc2)no[n+]1[O-])N1CCOCC1 | > 100 µM (inactive) | 0.264 µM (active) | > 100 µM (inactive) | > 100 µM (inactive) | > 100 µM (inactive) | > 100 µM (inactive) | > 100 µM (inactive) | > 100 µM (inactive) | > 100 µM (inactive) | > 100 µM (inactive) | > 100 µM (inactive) | > 100 µM (inactive) | > 100 µM (inactive) | > 100 µM (inactive) | > 100 µM (inactive) | > 100 µM (inactive) | > 100 µM (inactive) | > 100 µM (inactive) | > 100 µM (inactive) | > 100 µM (inactive) |
| CSC(=S)Nc1cc(C)cc(C)n1 | 22.4 µM (inactive) | > 10 µM (inactive) | > 31.6 µM (inactive) | > 31.6 µM (inactive) | > 31.6 µM (inactive) | > 31.6 µM (inactive) | > 31.6 µM (inactive) | > 31.6 µM (inactive) | > 31.6 µM (inactive) | > 31.6 µM (inactive) | > 31.6 µM (inactive) | > 31.6 µM (inactive) | > 31.6 µM (inactive) | > 31.6 µM (inactive) | > 100 µM (inactive) | > 66.4 µM (inactive) | > 31.6 µM (inactive) | > 31.6 µM (inactive) | > 31.6 µM (inactive) | > 10 µM (inactive) |
| CC(=O)NC(CC(C)C)C(=O)NC(Cc1ccccc1)C(=O)CCl (stereo not drawn) (Ac-Leu-Phe-CH2Cl; configuration not given here) | 4 µM (inactive) | 2.55 µM (inactive) | 20 µM (inactive) | 5.43 µM (inactive) | 21.1 µM (inactive) | 10.4 µM (inactive) | 16.6 µM (inactive) | 13.2 µM (inactive) | 5.78 µM (inactive) | 10.3 µM (inactive) | 5.04 µM (inactive) | 17.5 µM (inactive) | 12.3 µM (inactive) | 2.67 µM (inactive) | 18.8 µM (inactive) | 8.02 µM (inactive) | 18.3 µM (inactive) | 17.3 µM (inactive) | 9.68 µM (inactive) | 14.1 µM (inactive) |
| CCC(CC)C(=O)OC[n+]1cccc(-c2c(COC(=O)NC(C)C)c(COC(=O)NC(C)C)c3n2CCC3)c1 | 50 µM (inactive) | 5.87 µM (inactive) | > 100 µM (inactive) | > 100 µM (inactive) | > 100 µM (inactive) | > 100 µM (inactive) | > 100 µM (inactive) | > 100 µM (inactive) | 72.3 µM (inactive) | > 100 µM (inactive) | 64.9 µM (inactive) | > 100 µM (inactive) | > 100 µM (inactive) | > 100 µM (inactive) | > 100 µM (inactive) | > 100 µM (inactive) | > 100 µM (inactive) | 50.7 µM (inactive) | > 100 µM (inactive) | > 100 µM (inactive) |
| Clc1ccc(CCNCCNC2(c3cc4ccccc4s3)CCCCC2)cc1Cl | 1.95 µM (inactive) | 2.02 µM (inactive) | 1.92 µM (inactive) | 1.58 µM (inactive) | 2.08 µM (inactive) | 1.7 µM (inactive) | 1.63 µM (inactive) | 1.45 µM (inactive) | 1.68 µM (inactive) | 1.76 µM (inactive) | 1.71 µM (inactive) | 1.85 µM (inactive) | 2.02 µM (inactive) | 1.86 µM (inactive) | 1.78 µM (inactive) | 1.72 µM (inactive) | 1.64 µM (inactive) | 2.05 µM (inactive) | 1.84 µM (inactive) | 1.96 µM (inactive) |
| C=CCn1c(=O)c2ccccc2[n+]2c(-c3cccc([N+](=O)[O-])c3)csc12 | 48.9 µM (inactive) | 17 µM (inactive) | > 100 µM (inactive) | 24.8 µM (inactive) | 33.7 µM (inactive) | 38.4 µM (inactive) | 77.4 µM (inactive) | 33.9 µM (inactive) | 56.2 µM (inactive) | 30.6 µM (inactive) | 42.9 µM (inactive) | > 100 µM (inactive) | 40.8 µM (inactive) | > 100 µM (inactive) | 31.6 µM (inactive) | 11.4 µM (inactive) | 64.4 µM (inactive) | 24.4 µM (inactive) | 66.2 µM (inactive) | 17.5 µM (inactive) |
| CC[P+](c1ccccc1)(N(C)C)N(C)C | > 100 µM (inactive) | > 100 µM (inactive) | > 100 µM (inactive) | > 100 µM (inactive) | > 100 µM (inactive) | > 100 µM (inactive) | 53.8 µM (inactive) | > 100 µM (inactive) | 38.9 µM (inactive) | > 100 µM (inactive) | > 100 µM (inactive) | > 100 µM (inactive) | > 100 µM (inactive) | > 100 µM (inactive) | > 100 µM (inactive) | 54.5 µM (inactive) | > 100 µM (inactive) | > 100 µM (inactive) | > 100 µM (inactive) | > 100 µM (inactive) |
| Cc1cc(=O)n2c3c(c4c(cc13)c(CN(C)C)cc(=O)n4C)OC2 | 15.9 µM (inactive) | > 25.6 µM (inactive) | 15.8 µM (inactive) | 11.7 µM (inactive) | 20.6 µM (inactive) | 19.6 µM (inactive) | 32.4 µM (inactive) | 18.6 µM (inactive) | 28.5 µM (inactive) | 20.3 µM (inactive) | 6.47 µM (inactive) | 37.9 µM (inactive) | 20.9 µM (inactive) | 9.98 µM (inactive) | 38.2 µM (inactive) | 12.2 µM (inactive) | 9.27 µM (inactive) | 12.4 µM (inactive) | 27.8 µM (inactive) | 14.7 µM (inactive) |
| O=C(O)c1cc(C(=O)O)nc(C(=O)O)c1 | > 100 µM (inactive) | > 100 µM (inactive) | > 100 µM (inactive) | > 100 µM (inactive) | > 100 µM (inactive) | > 100 µM (inactive) | > 100 µM (inactive) | > 100 µM (inactive) | > 100 µM (inactive) | > 100 µM (inactive) | > 100 µM (inactive) | > 100 µM (inactive) | > 100 µM (inactive) | > 100 µM (inactive) | > 100 µM (inactive) | > 100 µM (inactive) | > 100 µM (inactive) | > 100 µM (inactive) | > 100 µM (inactive) | > 100 µM (inactive) |
| CN1CCC23c4c5ccc(O)c4OC2c2[nH]c4ccccc4c2CC3(O)C1C5 (stereo not given) | 18.7 µM (inactive) | 26.6 µM (inactive) | 65.5 µM (inactive) | 17.1 µM (inactive) | 92.9 µM (inactive) | 18.9 µM (inactive) | 22.5 µM (inactive) | 42.6 µM (inactive) | 16.3 µM (inactive) | 20.6 µM (inactive) | 36.3 µM (inactive) | > 100 µM (inactive) | 18.2 µM (inactive) | 22.4 µM (inactive) | 18.8 µM (inactive) | 13.5 µM (inactive) | 38.5 µM (inactive) | 24.2 µM (inactive) | 20 µM (inactive) | 36.7 µM (inactive) |
